Each structure is given as a SMILES string. Where two headings read alike, the source gives them in different places. A value given as a limit tells only on which side of the number the result lay.

In test [1] the target is purified human, His-tagged PRC2 complex (Homo sapiens (Human), UniProt O75530). As to the kind of experiment: Hot Spot HMT assay: inhibition of PRC2 enzymatic activity (transfer of tritiated methyl from SAM to core histone H3). The conditions noted are these: 10 nM PRC2 complex, 0.05 mg/ml core histone H3, 1 uM 3H-SAM, 1 hr at 30° C.; read-out: IC50, Inhibition of PRC2-mediated Enzymatic Activity. The test is classed as biochemical. From the text:
The assay uses purified human, His-tagged PRC2 complex, including N-terminal His-tagged EZH2 enzyme. N-terminal Flag-tagged embryonic ectoderm development protein (EED), N-terminal His-tagged suppressor of zeste 12 (SUZ12), N-terminal His-tagged AEBP2, and N-terminal His-tagged RbAp48. In this assay, the transfer of the tritiated methyl group from radiolabeled S-adenosyl methionine (SAM) to purified core histone protein by EZH2 is quantitated after filtration to determine the activity of the core PRC2 complex in the presence and absence of compound.
The initial starting concentration for the serial dilutions of each compound was 1.0 μM. […] SAH (S-(5-adenosyl)-L-homocysteine) was used as a positive control for assay validation.
An aliquot of each serial dilution of test compound was added to deep 384 well plate using Acoustic Technology instrument (Echo 550, LabCyte) containing reaction buffer (50 mM Tris-HCl (pH 8)), 0.01% Brij35, 1 mM EDTA, 1 mM DTT, 1 mM PMSF and 1% DMSO), 10 nM purified PRC2 complex and 0.05 mg/ml core histone H3 in a 5 μl volume. The reaction was mixed gently and then pre-incubated for 20 min at 30° C. The enzymatic reaction was initiated by adding 1 uM S-Adenosyl-L-[methyl-^3H]methionine and incubated for 1 hr at 30° C. After 1 hr, the reaction product was detected using a filter binding method and the amount of tritiated H3 core histone was quantitated using a scintillation counter. […] Key: A=<100 nM; B=>100 nM-<500 nM; and C=>500 nM.

For test [2], the system named is histone H3 Lys27 trimethylation in Pfeiffer cells expressing mutant EZH2 (A677G). In words: Tri-Methyl Histone H3 (Lys 27) sandwich ELISA in Pfeiffer cells. The format is cell-based. The following applies: Homo sapiens, 96 hours incubation, read-out: IC50 (nM), Inhibition of EZH2-mediated Histone H3 Trimethylation. From the text: The Pfeiffer cell line was established from a […] from a patient having metastatic diffuse large B-cell lymphoma (DLBCL). This cell line expresses a mutant form of the EZH2 enzyme (A677G) that results in enhanced EZH2 activity leading to increased methylation of histone H3 Lys27. Increased trimethylation of histone H3 Lys27 is believed to be implicated in tumorgenesis and poor clinical prognosis in lymphomas (McCabe et al., (2012) Nature 492:108-112).
Inhibition of PRC2-mediated histone H3 methylation by compounds of Formula (I) was measured by ELISA using a Tri-Methyl Histone H3 (Lys 27) Sandwich ELISA Kit (Cell Signaling Tech #7866C) in accordance with the manufacturer's instructions. Briefly, Pfeiffer cells were cultured in RPMI medium supplemented with 10% fetal bovine serum and 1% penicillin and 1% streptoncin in 96 well culture plates at 37° C. to a density of 8000 cells/90 μl/well and the cells were harvested. A series of 3-fold serial dilutions of each test compound of Formula (I) were prepared in RPMI medium and added to the cells at final concentrations ranging from 1 μM to 0.15 nM. The plates were incubated at 37° C. for 96 hours.
After incubation, the cells were pelleted by centrifugation in a pre-cooled 4° C. rotor at 1,100 rpm for 10 min and the supernatant was removed by aspiration. The cell pellet was resuspended in 55 μl of Lysis Buffer (0.4M HCl) and incubated on ice with periodic shaking for 30 minutes. The lysed cells were subjected to centrifugation at 4,200 rpm for 10 min at 4° C. and the supernatant containing acid-soluble proteins was collected and the remainder discarded. The acid-soluble proteins were brought to a neutral pH by the addition of 20 μl of Neutralization Buffer (1 M Sodium phosphate, dibasic (pH 12.5), 2.5 mM DTT and 1 mM PMSF) and the neutralized lysates were analyzed by ELISA.
A 65 μl aliquot of each cell lysate was added to a well of a microwell strip, the microwells were sealed using tape and incubated either at 37° C. for two hours or at 4° C. overnight. After incubation, the tape was removed at the microwells were washed four times using 200 μl of 1× Wash Buffer. To each washed microwell, a 100 μl aliquot of an anti-trimethyl histone H3 Lys27 Detection Antibody solution was added and the microwells were incubated at 37° C. for one hour. The Detection Antibody solution was removed by aspiration and the wells were washed four times each using 200 μl of 1× Wash Buffer.
A 100 μl aliquot of an HRP-linked secondary antibody was added to each well, the wells were sealed with tape and incubated at 37° C. for 30 min. The HRP-linked secondary antibody solution was removed by aspiration and the wells were washed four times using 200 μl of 1× Wash Buffer. A 100 μl aliquot of a TMB substrate was added to each well, the wells were sealed with tape and incubated at 37° C. for 10 min or 25° C. for 30 min. The reaction was stopped by the addition of 100 μl aliquot of a STOP solution and the plate was shaken briefly. The degree of histone H3 trimethylation was determined using a spectrophotometric readout by measuring the absorbance at 450 nm and then calculating the amount of trimethylated histone H3. A=≤100 nM; B=>100 nM-≤500 nM; C=>500 nM and N.D.=not determined.

For test [3], the system named is Karpas 422 cells expressing mutant EZH2 (Y641N). As to the kind of experiment: Karpas 422 cell viability, CTG (Cell Titre Glo) assay. The conditions noted are these: Day 4, 7 or 11 measured, time point of the table not stated, read-out: IC50 (nM), Inhibiting Proliferation of Cells Expressing an Activating Mutant Form of EZH2. The format is cell-based, human. How it is done:
Karpas 422 cell line is a human B cell non-Hodgkin's lymphoma cell line established from a patient having DLBCL. This EZH2 heterozygotic cell line expresses a mutant form of EZH2 enzyme (Y641N) that increases histone H3 methylation and this mutation has been implicated in the tumorgenesis of lymphomas, such as DLBCL.
Karpas 422 cells (PHE cat no., 06101702) were cultured in RPMI medium supplemented with 20% fetal bovine serum and 1% penicillin/l % streptomycin and plated at a density of 1000 cells/90 μl/well in 96 well white assay plates. A dose response curve for compounds of the present invention was determined by adding a 10 μl aliquot of stock solutions of varying concentrations of compounds to the same medium in each well, over a concentration range of 10 μM using 3-fold dilutions to a final concentration of 1.5 nM. The plates were incubated at 37° C. for predetermined time periods, Day 4, Day 7, or Day 11, and the viability of the cells was measured using a CTG assay kit (Cell Titre Glo; Promega cat. no G7573) on Day 4 and Day 7 in accordance with the manufacturer's instructions.
For the viability assay for the Day 11 plates, the plates were subjected to centrifugation at 1100 rpm for five minutes on Day 7 and the supernatant was removed by aspiration. The cells were resuspended in 90 μl aliquot of the appropriate growth medium lacking the compound followed by addition of 10 μl of a 10× stock of the same compound at the same concentration. The viability of the Day 11 cells was measured using the CTG assay kit described above in accordance with the manufacturer's instructions. The IC50 values for each compound at each predetermined time point were calculated using Graph pad PRISM software and the results are shown in Table 15. A=≤250 nM; B=<250 nM-≤500 nM; and C=>500 nM.

Chain of purified human, His-tagged PRC2 complex (Q15910 whole entry): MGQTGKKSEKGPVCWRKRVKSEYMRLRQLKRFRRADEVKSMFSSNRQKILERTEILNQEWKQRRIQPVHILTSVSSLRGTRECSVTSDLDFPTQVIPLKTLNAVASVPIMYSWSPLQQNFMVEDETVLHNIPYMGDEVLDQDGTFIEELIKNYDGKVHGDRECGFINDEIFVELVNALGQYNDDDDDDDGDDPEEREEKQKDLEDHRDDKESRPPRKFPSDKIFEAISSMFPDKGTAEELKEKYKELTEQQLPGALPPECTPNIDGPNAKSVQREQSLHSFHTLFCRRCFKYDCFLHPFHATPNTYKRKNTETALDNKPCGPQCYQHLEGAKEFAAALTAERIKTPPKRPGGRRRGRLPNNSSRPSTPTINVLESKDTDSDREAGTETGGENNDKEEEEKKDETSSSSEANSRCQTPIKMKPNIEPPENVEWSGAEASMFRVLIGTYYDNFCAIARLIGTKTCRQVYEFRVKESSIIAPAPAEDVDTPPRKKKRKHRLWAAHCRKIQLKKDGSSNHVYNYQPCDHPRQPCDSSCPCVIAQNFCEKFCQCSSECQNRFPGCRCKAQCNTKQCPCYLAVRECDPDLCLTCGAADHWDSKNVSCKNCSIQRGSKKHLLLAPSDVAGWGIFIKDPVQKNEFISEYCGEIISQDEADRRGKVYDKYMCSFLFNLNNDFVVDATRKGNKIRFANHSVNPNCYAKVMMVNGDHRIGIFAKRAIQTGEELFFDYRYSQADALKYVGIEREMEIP
Chain of purified human, His-tagged PRC2 complex (O75530 whole entry): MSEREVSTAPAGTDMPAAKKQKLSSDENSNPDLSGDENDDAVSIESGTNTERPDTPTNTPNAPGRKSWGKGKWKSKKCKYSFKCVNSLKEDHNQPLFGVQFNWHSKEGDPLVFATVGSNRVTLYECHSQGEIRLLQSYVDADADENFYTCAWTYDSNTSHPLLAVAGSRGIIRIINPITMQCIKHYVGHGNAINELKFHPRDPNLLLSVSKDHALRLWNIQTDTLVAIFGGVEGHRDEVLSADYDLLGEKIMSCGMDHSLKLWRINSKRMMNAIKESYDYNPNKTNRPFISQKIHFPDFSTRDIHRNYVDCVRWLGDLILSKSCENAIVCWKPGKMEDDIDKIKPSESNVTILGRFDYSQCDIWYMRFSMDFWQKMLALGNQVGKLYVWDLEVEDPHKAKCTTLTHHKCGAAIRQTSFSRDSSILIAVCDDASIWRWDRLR
Chain of purified human, His-tagged PRC2 complex (Q15022 whole entry partner): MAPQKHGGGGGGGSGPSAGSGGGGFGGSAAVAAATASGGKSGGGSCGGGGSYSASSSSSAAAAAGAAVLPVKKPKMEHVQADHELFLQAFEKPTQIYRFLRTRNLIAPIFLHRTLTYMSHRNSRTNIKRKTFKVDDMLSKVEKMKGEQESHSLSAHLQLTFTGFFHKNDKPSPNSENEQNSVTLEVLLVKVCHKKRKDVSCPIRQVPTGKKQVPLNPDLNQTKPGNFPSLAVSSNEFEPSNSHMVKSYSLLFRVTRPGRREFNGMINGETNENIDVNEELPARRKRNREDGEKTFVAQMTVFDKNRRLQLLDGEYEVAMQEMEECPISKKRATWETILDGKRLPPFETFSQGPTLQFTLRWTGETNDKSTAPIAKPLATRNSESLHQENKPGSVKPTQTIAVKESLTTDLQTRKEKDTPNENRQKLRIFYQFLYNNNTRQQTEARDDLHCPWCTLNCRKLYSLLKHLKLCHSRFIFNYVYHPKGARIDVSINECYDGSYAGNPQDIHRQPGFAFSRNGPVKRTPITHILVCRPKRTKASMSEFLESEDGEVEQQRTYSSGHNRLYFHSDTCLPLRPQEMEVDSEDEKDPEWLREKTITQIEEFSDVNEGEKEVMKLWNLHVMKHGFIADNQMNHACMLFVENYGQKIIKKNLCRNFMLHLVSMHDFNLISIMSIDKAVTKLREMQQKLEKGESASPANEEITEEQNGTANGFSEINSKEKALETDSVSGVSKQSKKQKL
Chain of purified human, His-tagged PRC2 complex (Q6ZN18 whole entry partner): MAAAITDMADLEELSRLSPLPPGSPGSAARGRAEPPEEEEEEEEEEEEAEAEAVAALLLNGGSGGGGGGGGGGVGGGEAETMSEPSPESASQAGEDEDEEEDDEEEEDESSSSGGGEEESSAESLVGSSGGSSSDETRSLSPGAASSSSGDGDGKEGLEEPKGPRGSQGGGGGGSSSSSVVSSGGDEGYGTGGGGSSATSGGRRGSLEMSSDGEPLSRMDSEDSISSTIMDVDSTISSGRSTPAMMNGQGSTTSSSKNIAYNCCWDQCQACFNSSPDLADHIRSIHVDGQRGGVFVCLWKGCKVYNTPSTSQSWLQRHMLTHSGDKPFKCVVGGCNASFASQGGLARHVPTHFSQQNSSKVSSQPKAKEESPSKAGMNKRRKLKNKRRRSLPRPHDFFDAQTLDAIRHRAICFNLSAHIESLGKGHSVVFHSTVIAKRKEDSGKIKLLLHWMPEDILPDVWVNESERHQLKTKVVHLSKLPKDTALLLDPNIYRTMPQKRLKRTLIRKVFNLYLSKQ
Chain of purified human, His-tagged PRC2 complex (Q09028 whole entry partner): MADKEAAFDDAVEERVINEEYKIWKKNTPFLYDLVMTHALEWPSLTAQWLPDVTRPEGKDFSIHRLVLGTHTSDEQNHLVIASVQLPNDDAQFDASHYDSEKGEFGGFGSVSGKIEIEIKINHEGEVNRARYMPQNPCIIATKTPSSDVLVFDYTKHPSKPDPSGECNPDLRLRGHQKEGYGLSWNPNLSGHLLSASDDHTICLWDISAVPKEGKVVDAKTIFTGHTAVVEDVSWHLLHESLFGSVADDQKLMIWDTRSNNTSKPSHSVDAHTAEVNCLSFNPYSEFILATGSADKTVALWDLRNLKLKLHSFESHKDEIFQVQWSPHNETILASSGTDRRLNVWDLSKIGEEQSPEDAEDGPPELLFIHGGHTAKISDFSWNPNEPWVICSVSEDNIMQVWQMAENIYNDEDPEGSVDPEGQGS

Take `N#Cc1cn2c(NCc3c(F)ccc4c3CCO4)ncc(-c3cnc(C4CC4)nc3)c2n1` [Example 70]: the IC50 is below 100 nM in test [1]; below 100 nM in test [2]; at most 250 nM in test [3] (Homo sapiens, 96 h).
For the compound `Cc1cc(-c2cnc(NCc3c(F)ccc4c3CCO4)n3cc(C#N)nc23)ccn1` [Example 178, 5-(((5-fluoro-2,3-dihydrobenzofuran-4-yl)methyl)amino)-8-(2-methylpyridin-4-yl)imidazo[1,2-c]pyrimidine-2-carbonitrile], the IC50 in test [1] was 100 to 500 nM; in test [2], 100 to 500 nM; in test [3] (Homo sapiens, 96 h), at most 250 nM.
`CN(C)C(=O)c1cc(-c2cnc(NCc3c(F)ccc4c3CCO4)n3cc(C#N)nc23)n(C)n1` [Example 170, 5-(2-cyano-5-(((5-fluoro-2,3-dihydrobenzofuran-4-yl)methyl)amino)imidazo[1,2-c]pyrimidin-8-yl)-N,N,1-trimethyl-1H-pyrazole-3-carboxamide]: the IC50 in test [3] fell in the range of 250 to 500 nM.
As to `Cc1cc(-c2cnc(NCc3c(F)ccc4occc34)n3cc(C#N)nc23)n(C)n1` [Example 28], the IC50 in test [1] was below 100 nM; in test [3] (Homo sapiens, 96 h), 250 to 500 nM.
Turning to `Cc1nc(CN(C)C)ccc1-c1cnc(NCc2c(F)ccc3c2CCO3)n2cc(C#N)nc12` [Example 152], the IC50 in test [3] was at most 250 nM.
As to `Cn1nc(C(=O)O)cc1-c1cnc(NCc2c(F)ccc3c2CCO3)n2cc(C#N)nc12` [Example 157, 5-(2-cyano-5-(((5-fluoro-2,3-dihydrobenzofuran-4-yl)methyl)amino)imidazo[1,2-c]pyrimidin-8-yl)-1-methyl-1H-pyrazole-3-carboxylic acid], the IC50 in test [2] was below 100 nM; in test [3] (Homo sapiens, 96 h), at most 250 nM.
`Cc1cc(-c2cnc(NCc3c(F)ccc4c3OCO4)n3cc(C#N)nc23)n(C)n1` [Example 228, 8-(1,3-dimethyl-1H-pyrazol-5-yl)-5-(((5-fluorobenzo[d][1,3]dioxol-4-yl)methyl)amino)imidazo[1,2-c]pyrimidine-2-carbonitrile]: the IC50 was 100 to 500 nM in test [1]; 100 to 500 nM in test [2]; at most 250 nM in test [3] (Homo sapiens, 96 h).
For `[2H]C([2H])(Nc1ncc(-c2ccc(CN(C)C)cc2)c2nc(C#N)cn12)c1c(F)ccc2c1CCO2` [Example 165, 8-(4-((dimethylamino)methyl)phenyl)-5-(((5-fluoro-2,3-dihydrobenzofuran-4-yl)methyl-d2)amino)imidazo[1,2-c]pyrimidine-2-carbonitrile], the IC50 in test [2] was 100 to 500 nM; in test [3] (Homo sapiens, 96 h), at most 250 nM.
